{
  "source": "patent US20210130826A1",
  "about": "“METHODS OF MODULATING ANTISENSE ACTIVITY” (IONIS PHARMACEUTICALS, INC., priority 2018, published 2021)",
  "key": {"p62": {"tested_on": "p62", "assay": "Liver protein analysis in mice: p62", "assay_type": "in vivo", "settings": "Table 30; mouse liver 24 h; oligonucleotide 5 mg/kg (or PBS); Treatment AZD8055 5 mg/kg at 0, 12, 22 h", "protocol": "The following experiments were performed to determine if the effects of autophagy modulators on antisense activity in vitro can be observed in vivo. Groups of 3-4 8-week-old male C57bl/6J mice were administered 5 mg/kg control oligonucleotide 141923, or 5 mg/kg antisense oligonucleotide 399462. Following administration of modified oligonucleotide, mice were administered 1% DMSO or 5 mg/kg AZD8055 in 1% DMSO at three time points over 24 hours: at the time of administration of the modified oligonucleotide, and 12 and 22 hours after administration of the modified oligonucleotide. A group of control mice was administered PBS at time 0 and 1% DMSO at 0, 12, and 22 hours. Mice were sacrificed at 24 hours after administration of the modified oligonucleotide and tissues were collected for analysis.\nAutophagy activation was confirmed in livers by determining suppression of mTOR kinase activity (pS6/S6 levels), determining an increased LC3B II/I ratio (a marker for the formation of autophagosomes), and determining p62 degradation (related to the clearance of autophagosomes). Protein analysis was carried out on liver tissue using standard procedures. All proteins were normalized to α-tubulin. Phospho-S6 Ribosomal Protein (Ser240/244) (2215S), and S6 Ribosomal Protein (2217S) antibodies were obtained from Cell Signaling Technology. The antibody against LC3B (ab48394) was purchased from Abcam. […]"}, "Malat-1": {"tested_on": "Malat-1", "assay": "Malat-1 RNA by RT-qPCR in A431 cells", "assay_type": "cell-based, human", "settings": "MOE gapmer", "protocol": "RT-qPCR analysis was performed to detect RNA levels of Malat-1 using primer probe set RTS2736. Results were normalized to cyclophilin A levels (measured using HTS3936). […] Each table below represents results from an individual assay."}, "Atg7": {"tested_on": "Atg7", "assay": "Atg7 mRNA in mouse liver by RT-qPCR", "assay_type": "in vivo", "settings": "Table 31; mouse liver 24 h; oligonucleotide 5 mg/kg; AZD8055 5 mg/kg at 0, 12, 22 h", "protocol": "The following experiments were performed to determine if the effects of autophagy modulators on antisense activity in vitro can be observed in vivo. […] Mice were sacrificed at 24 hours after administration of the modified oligonucleotide and tissues were collected for analysis. […] Atg7 mRNA levels are a marker of the induction of autophagy in treated mouse livers. Results are presented as percent change of RNA, relative to PBS control treated with DMSO, normalized to mouse cyclophilin A measured using mouse primer probe set Cyclophilin-A (forward sequence [NT], designated herein as SEQ ID NO: 38; reverse sequence [NT], designated herein as SEQ ID NO: 39; probe sequence [NT], designated herein as SEQ ID NO: 40). […] Following administration of modified oligonucleotide, groups of mice were either allowed free access to chow (control) or fasted overnight (16 hr fast). Mice were sacrificed at 16 hours after administration of the modified oligonucleotide and tissues were collected for analysis. […] Atg7 mRNA levels are a marker of the induction of autophagy in treated mouse livers. Results are presented in Table 33 relative to mice treated with PBS and allowed normal access to chow. […] Mice were sacrificed at 24 hours after administration of the modified oligonucleotide and tissues were collected for analysis. […]"}},
  "data": [
    {"smiles": "COc1ccc(-c2ccc3c(N4CCOC[C@@H]4C)nc(N4CCOC[C@@H]4C)nc3n2)cc1CO", "note": "[AZD8055]", "values": [
      {"measurement": "P62", "setting": "p62", "result": 0.5},
      {"measurement": "effect of autophagy modulator on modified oligonucleotide activity (in words)", "setting": "Malat-1", "result": "significantly enhanced modified oligonucleotide activity"},
      {"measurement": "Atg7 level (% relative to PBS/DMSO-treated mice)", "setting": "Atg7", "result": 112, "unit": "%"}
    ]}
  ]
}
